Patent publication EP0193355B1, “Analgesic composition” (ELI LILLY AND COMPANY, priority 1985, dated 1986)
Counter-ions that a name gives are not always drawn.

Test system: Mouse Writhing
Test: mouse writhing assay (acetic acid-induced writhing)
Type: in vivo, albino male mice
Settings: for Percent Inhibition of Writhing: Codeine Sulfate 10 mg/kg + Saline, oral; for Codeine Sulfate Induced Inhibition of Mouse Writhing ED₅₀: codeine sulfate subcutaneous, writhing assessed 30 minutes later
Text: Writhing, which is characterized by contraction of the abdominal musculature, extension of the hindlegs, and rotation of the trunk, was induced in albino male mice. The extent to which writhing is reduced following administration of a test compound is an indication of the analgesic activity of that compound.
Mice, weighing 18-24 grams, were fasted overnight and given the test compounds by gavage or subcutaneously. Writhing was then induced by the intraperitoneal administration of acetic acid (0.55 to 0.60 percent). Each treatment group consisted of five mice. The total number of writhes for the treatment group was determined during a 10-minute observation period starting five minutes after acetic acid administration. […] The results in the mouse writhing assay are presented either as the effective dose in mg/kg of the respective test compound required to inhibit induced writhing in the test animals by fifty percent (ED₅₀), or as the percent inhibition of writhing at the particular dose of the test compound administered.

| SMILES | Percent Inhibition of Writhing (30 minutes after administration) [%] | Percent Inhibition of Writhing (60 minutes after administration) [%] | Percent Inhibition of Writhing (120 minutes after administration) [%] | Percent Inhibition of Writhing (180 minutes after administration) [%] | Percent Inhibition of Writhing (240 minutes after administration) [%] | Percent Inhibition of Mouse Writhing (Codeine Sulfate 10 mg/kg oral, Fluoxetine Hydrochloride 0 mg/kg, writhing assessed 60 minutes later) | inhibition at 10 mg/kg (Mus musculus, 1 h, Codeine Sulfate 10 mg/kg oral, Fluoxetine Hydrochloride 0 mg/kg, writhing assessed 60 minutes later, read-out: Percent Inhibition of Mouse Writhing) [%] | Codeine Sulfate Inhibition of Mouse Writhing ED₅₀ (codeine sulfate oral, alone (Fluoxetine Hydrochloride 0), writhing assessed 60 minutes later) [mg/kg] | Codeine Sulfate Inhibition of Mouse Writhing ED₅₀ (codeine sulfate oral, simultaneously with Fluoxetine Hydrochloride 20 mg/kg oral, writhing assessed 60 minutes later) [mg/kg] | Codeine Sulfate Induced Inhibition of Mouse Writhing ED₅₀ (alone (Fluoxetine Hydrochloride 0 mg/kg s.c.)) [mg/kg] | Codeine Sulfate Induced Inhibition of Mouse Writhing ED₅₀ (simultaneously with Fluoxetine Hydrochloride 20 mg/kg s.c.) [mg/kg] | Codeine Sulfate Inhibition of Mouse Writhing ED₅₀ (pretreatment Fluoxetine Hydrochloride (20 mg/kg) oral three hours before, codeine sulfate oral 15 minutes prior to assessment of writhing) [mg/kg] | Codeine Sulfate Inhibition of Mouse Writhing ED₅₀ (pretreatment Saline oral three hours before, codeine sulfate oral 15 minutes prior to assessment of writhing) [mg/kg] | ED₅₀ of codeine sulfate alone relative to the amount needed when 20 mg/kg of fluoxetine hydrochloride was concomitantly administered (subcutaneous, 30 minutes prior to the assessment of mouse writhing) [times] | analgesic activity (fluoxetine hydrochloride alone, doses up to 160 mg/kg, 30-180 minutes before writhing was induced) |
| --- | --- | --- | --- | --- | --- | --- | --- | --- | --- | --- | --- | --- | --- | --- | --- |
| COc1ccc2c3c1O[C@H]1[C@@H](O)C=C[C@H]4[C@@H](C2)N(C)CC[C@@]341 [Codeine Sulfate, codeine sulfate] | 40 | 38 | 37 | 35 | 22 | no inhibition | 0 | 27.0 | 15.4 | 9.8 | 2.8 | 9.4 | 18.6 | 3.5 | – |
| CNCCC(Oc1ccc(C(F)(F)F)cc1)c1ccccc1 (stereo not drawn) [fluoxetine hydrochloride, 3-(4-trifluoromethylphenoxy)-N-methyl-3-phenylpropylamine] | – | – | – | – | – | – | – | – | – | – | – | – | – | – | devoid of analgesic activity |
